Numbering of substitutions follows the chain as printed. Numbers in names are those of the source.
Legend:
Ssal-KRED [1] = target: T1, Ssal-KRED (Sporobolomyces salmonicolor, UniProt Q9UUN9, F97W/T134V/S224A/A238K/L241M/M242W/Q245S/Y246G/L316M/T342M); assay: UV assay at […] nm, Michaelis-Menten fit; format: biochemical; conditions: apparent; NADP+/iPrOH as hydride donor; purified His-tagged enzyme; read-out: app. KM
T1 construct: N-terminal 6xHis-tag, pET28b(+), purified; recombinant from E. coli
T1 sequence (Q9UUN9 2-343 F97W/T134V/S224A/A238K/L241M/M242W/Q245S/Y246G/L316M/T342M): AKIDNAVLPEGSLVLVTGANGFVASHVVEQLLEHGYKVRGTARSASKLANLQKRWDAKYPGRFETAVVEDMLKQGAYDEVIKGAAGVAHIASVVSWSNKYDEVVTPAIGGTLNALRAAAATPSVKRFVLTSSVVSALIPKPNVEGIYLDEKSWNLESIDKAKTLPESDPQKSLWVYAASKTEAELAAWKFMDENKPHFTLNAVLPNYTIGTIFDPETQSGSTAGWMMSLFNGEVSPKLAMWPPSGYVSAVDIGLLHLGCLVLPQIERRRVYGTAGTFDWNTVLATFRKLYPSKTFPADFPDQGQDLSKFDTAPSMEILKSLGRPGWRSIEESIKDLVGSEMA

Ssal-KRED [2] = target: T2, Ssal-KRED (Sporobolomyces salmonicolor, UniProt Q9UUN9, F97W/L241M/M242W/Q245S/L316M/T342M); assay: UV assay at […] nm, Michaelis-Menten fit; format: biochemical; conditions: apparent; NADP+/iPrOH as hydride donor; purified His-tagged enzyme; read-out: app. KM
T2 construct: N-terminal 6xHis-tag, pET28b(+), purified; recombinant from E. coli
T2 sequence (Q9UUN9 2-343 F97W/L241M/M242W/Q245S/L316M/T342M): T1 sequence (Q9UUN9 2-343 F97W/T134V/S224A/A238K/L241M/M242W/Q245S/Y246G/L316M/T342M) with V133T, A223S, K237A, G245Y

Ssal-KRED [3] = target: T3, Ssal-KRED (Sporobolomyces salmonicolor, UniProt Q9UUN9, F97W/S224A/A238K/L241M/M242W/Q245S/Y246G/L316M/T342M); assay: UV assay at […] nm, Michaelis-Menten fit; format: biochemical; conditions: apparent; NADP+/iPrOH as hydride donor; purified His-tagged enzyme; read-out: app. KM
T3 construct: N-terminal 6xHis-tag, pET28b(+), purified; recombinant from E. coli
T3 sequence (Q9UUN9 2-343 F97W/S224A/A238K/L241M/M242W/Q245S/Y246G/L316M/T342M): T1 sequence (Q9UUN9 2-343 F97W/T134V/S224A/A238K/L241M/M242W/Q245S/Y246G/L316M/T342M) with V133T

Ssal-KRED [4] = target: T4, Ssal-KRED (Sporobolomyces salmonicolor, UniProt Q9UUN9, F97W/A238K/L241M/M242W/Q245S/L316M/T342M); assay: UV assay at […] nm, Michaelis-Menten fit; format: biochemical; conditions: apparent; NADP+/iPrOH as hydride donor; purified His-tagged enzyme; read-out: app. KM
T4 construct: N-terminal 6xHis-tag, pET28b(+), purified; recombinant from E. coli
T4 sequence (Q9UUN9 2-343 F97W/A238K/L241M/M242W/Q245S/L316M/T342M): T1 sequence (Q9UUN9 2-343 F97W/T134V/S224A/A238K/L241M/M242W/Q245S/Y246G/L316M/T342M) with V133T, A223S, G245Y

Ssal-KRED [5] = target: T5, Ssal-KRED (Sporobolomyces salmonicolor, UniProt Q9UUN9, F97W/L241M/M242W/Q245S); assay: UV assay at […] nm, Michaelis-Menten fit; format: biochemical; conditions: apparent; NADP+/iPrOH as hydride donor; purified His-tagged enzyme; read-out: app. KM
T5 construct: N-terminal 6xHis-tag, pET28b(+), purified; recombinant from E. coli
T5 sequence (Q9UUN9 2-343 F97W/L241M/M242W/Q245S): T1 sequence (Q9UUN9 2-343 F97W/T134V/S224A/A238K/L241M/M242W/Q245S/Y246G/L316M/T342M) with V133T, A223S, K237A, G245Y, M315L, M341T

Ssal-KRED [6] = target: T6, Ssal-KRED (Sporobolomyces salmonicolor, UniProt Q9UUN9); assay: UV assay at […] nm, Michaelis-Menten fit; format: biochemical; conditions: apparent; NADP+/iPrOH as hydride donor; purified His-tagged enzyme; read-out: app. KM
T6 construct: N-terminal 6xHis-tag, pET28b(+), purified; recombinant from E. coli
T6 sequence (Q9UUN9 2-343): T1 sequence (Q9UUN9 2-343 F97W/T134V/S224A/A238K/L241M/M242W/Q245S/Y246G/L316M/T342M) with W96F, V133T, A223S, K237A, M240L, W241M, S244Q, G245Y, M315L, M341T

purified protein = substrate: C[C@@H]1CC(=O)c2ncnc(N3CCN(C(=O)OC(C)(C)C)CC3)c21; assay: purified protein; format: biochemical, Sporobolomyces salmonicolor; conditions: apparent; NADP+/iPrOH as hydride donor; purified His-tagged enzyme; substrate saturation was not reached

## C[C@@H]1CC(=O)c2ncnc(N3CCN(C(=O)OC(C)(C)C)CC3)c21 [1a, ketone 1a]
Ssal-KRED [1]
  Km: 144 ± 5.5 µM
Ssal-KRED [2]
  Km: 175 ± 9.9 µM
Ssal-KRED [3]
  Km: 472 ± 34.6 µM
Ssal-KRED [4]
  Km: 300 ± 7.9 µM
Ssal-KRED [5]
  Km: 163 ± 7.8 µM
Ssal-KRED [6]
  Km: 11.9 ± 1.1 µM

B1: Ssal-KRED (Sporobolomyces salmonicolor; A238K/F97W/L241M/L316M/M242W/Q245S/T342M/Y246G) (protein)
chain: T1 sequence (Q9UUN9 2-343 F97W/T134V/S224A/A238K/L241M/M242W/Q245S/Y246G/L316M/T342M) with V133T, A223S
notes: N-terminal 6xHis-tag, pET28b(+), purified; recombinant from E. coli
Purified protein
  Km: 1668 ± 103 µM
  kcat: 0.763 ± 0.04 s⁻¹
  kcat/Km: 458 M⁻¹ s⁻¹

— publication PMC10902378, “Effective engineering of a ketoreductase for the biocatalytic synthesis of an ipatasertib precursor” (Communications Chemistry, 2024)
